Assay results from patent publication US11006626B2, “Compounds for protection of cells” (Sulfateq B.V., priority 2012, dated 2021).

Experiments:
[1] = system: Human Embryo Kidney (HEK) 293 cells; experiment: Hypothermia/rewarming injury of HEK cells, trypan blue viability count; assay type: cell-based; details: for viability at 0.01 µM / viability at 0.1 µM / viability at 1 µM / viability at 10 µM / viability at 100 µM / viability at 1000 µM: Homo sapiens, HEK293, 24 h, read-out: % cells that survived; for viability at 0.01 µM / viability at 0.1 µM / viability at 1 µM / viability at 10 µM / viability at 100 µM / viability at 1000 µM / % cells that survived: 24 h at 4° C., 24 h rewarming; for % cells that survived, Mean: mean over the tested concentrations
Description: Human Embryo Kidney (HEK) 293 cells were cultured in DMEM cell culture medium (Life Technologies, 41965-052) supplemented with fetal calf serum, penicillin and streptomycin. Cells were seeded at a density of 0.8-1.2E6 mL-1 in 25 cm2 polystyrene flasks, placed in a 37° C.
The compounds were dissolved in dimethyl sulfoxide (DMSO) to several concentrations. Before commencing experiments, this stock solution was dissolved in pre-warmed DMEM and further diluted to obtain a concentration range from 10 nM-1 mM. Cell culture medium was then replaced by these dilutions and cells were incubated in the presence of the compound for 1 hour. After incubation, lids were closed tightly and flasks were placed in a 4° C. room and cooled for 24 hours. After this cooling period, cells were placed back in the 37° C. incubator with lids closed and were allowed to rewarm for another 24 hours.
After this rewarming period, microscopic images were taken to assess cell morphology (Nikon D5100, Nikon Diaphot-TMD). Cell culture medium was collected and centrifuged (4 minutes, 2000 rpm). The supernatant was collected and pH was immediately measured to prevent equilibration of the pH by the carbonate buffer in the medium, while the pelleted cells were resuspended in 5 mL of PBS. Cells remaining in the flask were washed twice with phosphate buffered saline (PBS) while the washing product was discarded. Subsequently, the cells were trypsinized by addition of 0.5 mL of trypsine and pooled with the resuspended pellet. This cell suspension was then stained at a final concentration of 0.2% trypan blue (Sigma, T8154), followed by manual assessment of viability and cell number on a Bürker-Türk hemocytometer. To conclude the assay, cell culture medium glucose levels were measured (Roche Accutrend Plus) as an indication of metabolic activity. All of these steps were performed with care to prevent mechanical stress to influence or alter the viability of the cells after cooling.
The amount represents the % cells that survived. […] In the control, the same procedure was applied to two badges of HEK cells.

blood platelets = experiment: Cold storage of PRP blood platelets, aggregation of thrombocytes after storage; assay type: cell-based; design: key: − means that most of the thrombocytes were aggregated; a + indicates that a few cells were still viable but some cells aggregated; a ++ indicates that almost all cells were viable; details: 30 mM; PRP platelets stored at 4° C.; 264 hours
Description: PRP platelets were harvested and 2.1 ml was suspended in Poly Propylene tubes of 5 ml, closed with a stop.
Several compounds according to the invention were added to the blood platelets directly after preparing the PRP plasma and incubated during 10 minutes at 37° C. or 30 minutes at room temperature. The blood platelets with the compound were then stored at 4° C.
A control was stored under shaking conditions at room temperature. Another control was stored at 4° C. without the addition of a compound.
A sample was taken out of each tube after 264 hours after addition of the compound and tested as follows: • The color and coagulation properties were visually analysed. • The thrombocyte cells that survived were counted and it was evaluated whether the thrombocytes were aggregated. • It was evaluated if the thrombocytes still were able to function after stimulation by the addition of ADP or under influence of collagen in a 96 well plate. • The adhesion was evaluated, meaning the ability of the platelets to bind collagen in a 6 well plate preincubated with collagen. • Via an ELISA assay, it was evaluated whether thromboxane was secreted from the platelets. Thromboxane facilitates aggregation and is produced by activated blood platelets.
Table 3 provides an overview of the results of the addition of the compounds to the blood platelets and evaluates the aggregation of the thrombocytes after addition of the compound according to the invention and cooling until 4° C.

porcine hearts = experiment: Cold ischemic tolerance of porcine hearts, reperfusion in PhysioHeart platform; design: species or system pig
Excerpt: This example studies if SUL 109 as additive to standard heart transplantation protocols will help to prolong the maximal cold ischemic protection of porcine hearts. For long term arrest, for example in case of transplantation, a commonly used solution is CUSTODIOL®. With CUSTODIOL® solution it is possible to keep a heart in a cold ischemic state for up to six hours before reperfusion with warm oxygenated blood is necessary.
Two hearts were harvested from slaughterhouse pigs and treated as follows. […] After exsanguinations the sternum was quickly opened and the heart and lungs were removed as a whole. The heart was immediately submersed in an ice cold bath and the aorta was cut proximal to the brachocephalic side branches. A 19 mm cannula was inserted in the aorta and tied off. The carefully de-aired cannulla was used to retrogradely administer cold cardioplegic solution. In the first heart, 2 liters of standard CUSTODIOL® with 5000 IU/1 of heparin added was administered. The second heart was administered 2 liters of CUSTODIOL® with 5000 IU/1 of heparin and 10 ml/l of SUL 109 in 0.9% NaCl at 75 μM. Both hearts were stored in plastic bags filled with the same solutions and transported to the lab on ice at approximately 4° C. Before preparation the hearts were stored at 4° C. for 24 hours. The next day both hearts were prepared to be mounted in the PhysioHeart platform as described in DeHart et al 2011. After de-airing the hearts, retrograde reperfusion of the aorta was started with warm oxygenated blood at 38° C. Both flow of blood and pressure at the aortic root were registered during the experiment.

[2] = at reperfusion after 24 hours at 4° C., vs. non treated heart

Row | SMILES | viability at 0.01 µM ([1]; 10 nM) | viability at 0.1 µM ([1]; 100 nM) | viability at 1 µM ([1]; 1 μM) | viability at 10 µM ([1]; 10 μM) | viability at 100 µM ([1]; 100 μM) | viability at 1000 µM ([1]; 1 mM) | % cells that survived, Mean [1] | Aggregation of blood platelets after storage (blood platelets) | % cells that survived ([1]; 10 nM) | % cells that survived ([1]; 100 nM) | % cells that survived ([1]; 1 μM) | % cells that survived ([1]; 10 μM) | % cells that survived ([1]; 100 μM) | % cells that survived ([1]; 1 mM) | contraction after defibrillation shocks (porcine hearts; at reperfusion after 24 hours at 4° C.) | contractile activity (porcine hearts; [2]) | vascular resistance (porcine hearts; [2]) | coronary flow (porcine hearts; perfusion pressure of 80 mmHg, reperfusion after 24 hours at 4° C.) | contractive activity of the myocardial tissue (porcine hearts; treated vs. non-treated heart)
1 | Cc1c2c(c(C(C)C)c(O)c1C(C)C)CCC(C)(C(=O)O)O2 (stereo not drawn) [SUL - 118, 6-hydroxy-5,7-diisopropyl-2,8-dimethylchroman-2-carboxylic acid] | 13.7% | 45.7% | 36.2% | 52.9% | 88.5% | 92.5% | 55% | + | – | – | – | – | – | – | – | – | – | – | –
2 | CNCCNC(=O)C1(C)CCc2c(C)c(O)c(C)c(C)c2O1 (stereo not drawn) [SUL - 100, 6-hydroxy-2,5,7,8-tetramethyl-N-(2-(methylamino)ethyl)chroman-2-carboxamide] | 77.8% | 76.9% | 63.2% | 68.8% | 55.6% | 0% | 57% | + | – | – | – | – | – | – | – | – | – | – | –
3 | Cc1c(C)c2c(c(C)c1O)CCC(C)(C(=O)N[C@H](C)CO)O2 (stereo partly drawn) [SUL - 120, 6-hydroxy-N-((R)-1-hydroxypropan-2-yl)-2,5,7,8-tetramethylchroman-2-carboxamide] | 17.6% | 65.3% | 95.5% | 91.6% | 88.7% | 81.5% | 73% | + | – | – | – | – | – | – | – | – | – | – | –
4 | Cc1c(C)c2c(c(C)c1O)CC[C@](C)(C(=O)N1CCN(CC(=O)O)CC1)O2 [SUL - 142, (R)-2-(4-(6-hydroxy-2,5,7,8-tetramethylchroman-2-carbonyl)piperazin-1-yl)acetic acid] | 0% | 73% | 98.5% | 99.2% | 99.4% | 91.9% | 77% | ++ | – | – | – | – | – | – | – | – | – | – | –
5 | Cc1c(C)c2c(c(C)c1O)CCC(C)(C(=O)N1CCC[C@H]1C(=O)O)O2 (single isomer, unassigned) [SUL - 145] | – | – | – | – | – | – | 40% | + | 12.99% | 28.68% | 21.43% | 7.84% | 78.61% | 88.08% | – | – | – | – | –
6 | Cc1c(C)c2c(c(C)c1O)CC[C@@](C)(C(=O)NO)O2 [SUL - 126, (S)-N,6-dihydroxy-2,5,7,8-tetramethylchroman-2-carboxamide] | 0% | 0% | 68.1% | 92.7% | 98.6% | 80.2% | 57% | + | – | – | – | – | – | – | – | – | – | – | –
7 | Cc1c(C)c2c(c(C)c1O)CCC(C)(C(=O)N1CCN(CCO)CC1)O2 (stereo not drawn) [SUL - 109, (6-hydroxy-2,5,7,8-tetramethylchroman-2-yl)(4-(2-hydroxyethyl)piperazin-1-yl)methanone] | 92.6% | 98% | 97% | 94.9% | 93.7% | 87.4% | 94% | – | – | – | – | – | – | – | weak contractive unpaced pattern | more contractile activity compared to the non treated one | lower vascular resistance | 1 lpm | improved regular contractive activity
8 | Cc1c(C)c2c(c(C)c1O)CCC(C)(C(=O)N1CCN(CCO)CC1)O2 (stereo not drawn) [SUL - 138, (6-hydroxy-2,5,7,8-tetramethylchroman-2-yl)(4-(2-hydroxyethyl)piperazin-1-yl)methanone] | – | – | – | – | – | – | 89% | + | 92.84% | 91.74% | 77.01% | 91.71% | 93.30% | 86.94% | – | – | – | – | –
9 | Cc1c(C)c2c(c(C)c1O)CC[C@](C)(C(=O)NO)O2 [SUL - 125, (R)-N,6-dihydroxy-2,5,7,8-tetramethylchroman-2-carboxamide] | 8.09% | 0% | 97.3% | 96.7% | 88.4% | 22.5% | 52% | + | – | – | – | – | – | – | – | – | – | – | –
10 | Cc1c(C)c2c(c(C)c1O)CCC(C)(C(=O)N1CCN(CCO)CC1)O2 (stereo not drawn) [SUL - 132, (6-hydroxy-2,5,7,8-tetramethylchroman-2-yl)(4-(2-hydroxyethyl)piperazin-1-yl)methanone] | – | – | – | – | – | – | 89% | + | 93.96% | 91.41% | 88.30% | 91.11% | 89.73% | 80.51% | – | – | – | – | –
